# Results taken from patent publication US9120774B2 (University of Kansas, priority 2009, dated 2015).
# Where two headings read alike, the source gives them in different places.
# Columns and labels:
# Assay type in all cases: cell-based
# [1] = system: PC-3 (androgen independent prostate cancer cells); test: Anti-proliferation activity against PC-3 cells; conditions: for IC50: Homo sapiens, PC-3, read-out: IC50 PC-3
# Method: (§1) Upon completion of synthesis of library of compounds in Examples 23 and 24, the compounds were evaluated for anti-proliferative activity against SkBr3 (Her2 overexpressing breast cancer cells), MCF-7 (estrogen receptor positive breast cancer cells), HCT-116 (colon cancer cells characterized by wild-type p53), PL45 (pancreatic cancer cells), LNCaP (androgen sensitive prostate cancer cells) and PC-3 (androgen independent prostate cancer cells) cell lines. […] The monosubstituted benzamide variants improved activity.
# Cells were maintained in a 1:1 mixture of Advanced DMEM/F12 (Gibco) supplemented with non-essential amino acids, L-glutamine (2 mM), streptomycin (500 ng/mL), penicillin (100 units/mL), and 10% FBS. Cells were grown to confluence in a humidified atmosphere (37° C., 5% CO2), seeded (2000/well, 100 μl) in 96-well plates, and allowed to attach overnight. […] […] Cells incubated in 1% DMSO were used at 100% proliferation, and values were adjusted accordingly. IC50 values were calculated from separate experiments performed in triplicate using GraphPad Prism.
# [2] = system: HCT-116 (colon cancer cells characterized by wild-type p53); test: Anti-proliferation activity against HCT-116 cells; conditions: Homo sapiens
# Method: as §1
# [3] = system: MCF-7 (estrogen receptor positive breast cancer cells); test: Anti-proliferation activity against MCF-7 cells (MTS/PMS); conditions: for IC50: Homo sapiens, MCF7, read-out: IC50 MCF-7
# Method: (§2) Upon completion of synthesis of library of compounds in Examples 23 and 24, the compounds were evaluated for anti-proliferative activity against SkBr3 (Her2 overexpressing breast cancer cells), MCF-7 (estrogen receptor positive breast cancer cells), HCT-116 (colon cancer cells characterized by wild-type p53), PL45 (pancreatic cancer cells), LNCaP (androgen sensitive prostate cancer cells) and PC-3 (androgen independent prostate cancer cells) cell lines.
# (§3) Cells were maintained in a 1:1 mixture of Advanced DMEM/F12 (Gibco) supplemented with non-essential amino acids, L-glutamine (2 mM), streptomycin (500 ng/mL), penicillin (100 units/mL), and 10% FBS. Cells were grown to confluence in a humidified atmosphere (37° C., 5% CO2), seeded (2000/well, 100 μl) in 96-well plates, and allowed to attach overnight. Compound or GDA at varying concentrations in DMSO (1% DMSO final concentration) was added, and cells were returned to the incubator for 72 hours. At 72 hours, the number of viable cells was determined using an MTS/PMS cell proliferation kit (Promega) per the manufacturer's instructions. Cells incubated in 1% DMSO were used at 100% proliferation, and values were adjusted accordingly. IC50 values were calculated from separate experiments performed in triplicate using GraphPad Prism.
# as §3, with “μg/mL),” for “ng/mL),”, “μL)” for “μl)”
# [4] = system: PL45 (pancreatic cancer cells); test: Anti-proliferation activity against PL45 cells
# Method: as §1
# [5] = system: SkBr3 (Her2 overexpressing breast cancer cells); test: Anti-proliferation activity against SkBr3 cells (MTS/PMS); conditions: Homo sapiens, SK-BR-3
# Method: as §2, §3
# as §3, with “μg/mL),” for “ng/mL),”, “μL)” for “μl)”
# [6] = system: LNCaP (androgen sensitive prostate cancer cells); test: Anti-proliferation activity against LNCaP cells; conditions: Homo sapiens, LNCaP
# Method: as §1, §3
# [7] = Table 2, n = 3, read-out: IC50 SkBr3
# [8] = Table 6, 72 hours, MTS/PMS, mean ± standard deviation
# [9] = Table 6, 72 hours, MTS/PMS, mean ± standard deviation, read-out: IC50 LnCaP
# [10] = Table 6, 72 hours, MTS/PMS, mean ± standard deviation, read-out: IC50 SKBr3
Structure (SMILES),"IC50 ([2]; Table 2, n = 3) [µM]","IC50 ([3]; Table 2, n = 3) [µM]","IC50 ([4]; Table 2, n = 3) [µM]","IC50 [5, 7] [µM]","IC50 [1, 8] [µM]","IC50 [3, 8] [µM]","IC50 [6, 9] [µM]","IC50 [5, 10] [µM]",further results
"COc1ccccc1C(=O)Nc1cc2ccc(O[C@@H]3OC(C)(C)[C@H](OC)[C@@H](O)[C@H]3O)c(C)c2oc1=O [compound 9, N-(7-((2R,3R,4S,5R)-3,4-Dihydroxy-5-methoxy-6,6-dimethyltetrahydro-2H-pyran-2-yloxy)-8-methyl-2-oxo-2H-chromen-3-yl)-2-methoxybenzamide]",> 100,5.3 ± 1.3,35.8 ± 3.4,> 100,,,,,"IC50 ([1]; Table 2, n = 3): 9.1 ± 0.5 µM"
"COc1cccc(C(=O)Nc2cc3ccc(O[C@@H]4OC(C)(C)[C@H](OC)[C@@H](O)[C@H]4O)c(C)c3oc2=O)c1 [compound 10, N-(7-((2R,3R,4S,5R)-3,4-Dihydroxy-5-methoxy-6,6-dimethyltetrahydro-2H-pyran-2-yloxy)-8-methyl-2-oxo-2H-chromen-3-yl)-3-methoxybenzamide]",1.9 ± 0.6,5.6 ± 2.5,2.8 ± 0.8,> 100,,,,,"IC50 ([6]; Table 2, n = 3, read-out: IC50 LNCaP): 21.7 ± 2 µM"
"CO[C@@H]1[C@@H](O)[C@@H](O)[C@H](Oc2ccc3cc(NC(=O)OCc4ccccc4)c(=O)oc3c2C)OC1(C)C [compound 24, Benzyl 7-((2R,3R,4S,5R)-3,4-dihydroxy-5-methoxy-6,6-dimethyltetrahydro-2H-pyran-2-yloxy)-8-methyl-2-oxo-2H-chromen-3-ylcarbamate]",,,,,,,,,"IC50 ([2]; Table 3, n = 3): 13 ± 0.2 µM; IC50 ([3]; Table 3, n = 3): 12.1 ± 0.1 µM; IC50 ([4]; Table 3, n = 3): 11.4 ± 0.6 µM; IC50 ([5]; Table 3, n = 3, read-out: IC50 SkBr3): 17.8 ± 2.4 µM"
"CO[C@@H]1[C@@H](O)[C@@H](O)[C@H](Oc2ccc3cc(NC(=O)c4cccc([N+](=O)[O-])c4)c(=O)oc3c2C)OC1(C)C [compound 16, N-(7-((2R,3R,4S,5R)-3,4-Dihydroxy-5-methoxy-6,6-dimethyltetrahydro-2H-pyran-2-yloxy)-8-methyl-2-oxo-2H-chromen-3-yl)-3-nitrobenzamide]",> 100,> 100,> 100,> 100,,,,,"IC50 ([1]; Table 2, n = 3): > 100 µM"

# Now from value to molecule, other results behind:
"IC50 ([2]; Table 2, n = 3) [µM]","IC50 ([3]; Table 2, n = 3) [µM]","IC50 ([4]; Table 2, n = 3) [µM]","IC50 [5, 7] [µM]","IC50 [1, 8] [µM]","IC50 [3, 8] [µM]","IC50 [6, 9] [µM]","IC50 [5, 10] [µM]",Structure (SMILES),further results
,,,,20.2 ± 9.8,24.4 ± 1.2,10.5 ± 0.3,25.1 ± 7.7,"COc1cc2cc(NC(=O)c3cc4ccccc4[nH]3)c(=O)oc2c(C)c1O[C@@H]1OC(C)(C)[C@H](OC)[C@@H](O)[C@H]1O [26i, N-(7-((2S,3R,4S,5R)-3,4-dihydroxy-5-methoxy-6,6-dimethyltetrahydro-2H-pyran-2-yloxy)-6-methoxy-8-methyl-2-oxo-2H-chromen-3-yl)-1H-indole-2-carboxamide]",
,,,,5.6 ± 5.7,> 100,3 ± 0.6,> 100,"CCCOc1cc2cc(NC(=O)c3ccc(OC)c(-c4cccc(OC)c4)c3)c(=O)oc2c(C)c1O[C@@H]1OC(C)(C)[C@H](OC)[C@@H](O)[C@H]1O [26b, N-(7-((2S,3R,4S,5R)-3,4-dihydroxy-5-methoxy-6,6-dimethyltetrahydro-2H-pyran-2-yloxy)-8-methyl-2-oxo-6-propoxy-2H-chromen-3-yl)-3′,6-dimethoxybiphenyl-3-carboxamide]",fold increase in anti-proliferation activity versus the 6-H derivative ([1]; PC-3 cells): 10 fold
,,,,28 ± 12.1,22.9 ± 2.1,27.6 ± 10.8,38.8 ± 8.3,"CO[C@@H]1[C@@H](O)[C@@H](O)[C@H](Oc2ccc3cc(NC(=O)c4cc5ccccc5[nH]4)c(=O)oc3c2-c2ccccc2)OC1(C)C [26n, N-(7-((2R,3R,4S,5R)-3,4-dihydroxy-5-methoxy-6,6-dimethyltetrahydro-2H-pyran-2-yloxy)-2-oxo-8-phenyl-2H-chromen-3-yl)-1H-indole-2-carboxamide]",fold less active than the 8-methyl derivative ([3]; MCF-7 cells): 40 fold
,,,,6.2 ± 1.8,2.1 ± 0.1,1.8 ± 0.7,2.1 ± 0.8,"CCCOc1cc2cc(NC(=O)c3cc4ccccc4[nH]3)c(=O)oc2c(C)c1O[C@@H]1OC(C)(C)[C@H](OC)[C@@H](O)[C@H]1O [26j, N-(7-((2S,3R,4S,5R)-3,4-dihydroxy-5-methoxy-6,6-dimethyltetrahydro-2H-pyran-2-yloxy)-8-methyl-2-oxo-6-propoxy-2H-chromen-3-yl)-1H-indole-2-carboxamide]",
